Test results published in publication PMC8745178, “Methyl 2-Halo-4-Substituted-5-Sulfamoyl-Benzoates as High Affinity and Selective Inhibitors of Carbonic Anhydrase IX” (International Journal of Molecular Sciences, 2021).
Several values for one entry are separate records, joined by “and”; a condition that tells them apart may be missing. Equal values may be shown once.

Assays:
[1] = biological target: T1, CAI (Homo sapiens, UniProt P00915); test: fluorescent thermal shift assay (FTSA), CAI; assay type: binding; conditions: 37 °C; for ΔGintr CAI: converted from Kd_intr, independent of pH; for ΔGobs CAI: converted from Kd_obs, pH 7.0, FTSA
T1 sequence (P00915 whole entry): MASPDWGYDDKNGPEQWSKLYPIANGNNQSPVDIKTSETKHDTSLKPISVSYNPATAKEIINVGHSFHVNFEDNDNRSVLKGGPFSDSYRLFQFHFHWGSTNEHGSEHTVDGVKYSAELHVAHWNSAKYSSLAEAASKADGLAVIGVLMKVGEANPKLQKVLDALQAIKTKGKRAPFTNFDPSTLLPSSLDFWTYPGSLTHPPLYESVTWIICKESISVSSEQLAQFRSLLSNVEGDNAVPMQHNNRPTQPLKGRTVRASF

[2] = biological target: T2, CAII (Homo sapiens, UniProt P00918); test: fluorescent thermal shift assay (FTSA), CAII; assay type: binding; conditions: 37 °C; for ΔGintr CAII: converted from Kd_intr, independent of pH; for ΔGobs CAII: converted from Kd_obs, pH 7.0, FTSA
[3] = test system: CAII; test: fluorescent thermal shift assay (FTSA), CAII; assay type: binding, human; conditions: intrinsic
[4] = biological target: CAVB (Homo sapiens, UniProt Q9Y2D0); test: fluorescent thermal shift assay (FTSA), CAVB; assay type: binding; conditions: 37 °C; for ΔGintr CAVB: converted from Kd_intr, independent of pH; for ΔGobs CAVB: converted from Kd_obs, pH 7.0, FTSA
Sequence of CAVB (Q9Y2D0 34-317): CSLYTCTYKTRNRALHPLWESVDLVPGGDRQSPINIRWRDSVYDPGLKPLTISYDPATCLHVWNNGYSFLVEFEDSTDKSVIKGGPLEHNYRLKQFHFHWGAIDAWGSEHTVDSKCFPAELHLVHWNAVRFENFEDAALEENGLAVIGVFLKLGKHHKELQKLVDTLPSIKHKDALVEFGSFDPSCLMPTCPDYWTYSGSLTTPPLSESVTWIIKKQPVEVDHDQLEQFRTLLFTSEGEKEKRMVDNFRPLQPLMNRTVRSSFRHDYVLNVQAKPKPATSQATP

[5] = biological target: CAVI (Homo sapiens, UniProt P23280); test: fluorescent thermal shift assay (FTSA), CAVI; assay type: binding; conditions: 37 °C; for ΔGintr CAVI: converted from Kd_intr, independent of pH; for ΔGobs CAVI: converted from Kd_obs, pH 7.0, FTSA
Sequence of CAVI (P23280 18-308): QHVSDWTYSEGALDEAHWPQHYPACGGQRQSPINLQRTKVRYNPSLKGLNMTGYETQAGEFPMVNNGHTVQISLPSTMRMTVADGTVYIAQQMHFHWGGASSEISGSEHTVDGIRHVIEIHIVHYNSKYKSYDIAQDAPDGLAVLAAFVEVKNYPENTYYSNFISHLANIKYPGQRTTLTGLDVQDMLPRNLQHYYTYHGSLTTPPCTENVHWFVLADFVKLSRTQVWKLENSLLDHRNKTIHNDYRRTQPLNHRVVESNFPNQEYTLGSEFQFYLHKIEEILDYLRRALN

[6] = biological target: CAVII (Homo sapiens, UniProt P43166); test: fluorescent thermal shift assay (FTSA), CAVII; assay type: binding; conditions: 37 °C; for ΔGintr CAVII: converted from Kd_intr, independent of pH; for ΔGobs CAVII: converted from Kd_obs, pH 7.0, FTSA
Sequence of CAVII (P43166 whole entry): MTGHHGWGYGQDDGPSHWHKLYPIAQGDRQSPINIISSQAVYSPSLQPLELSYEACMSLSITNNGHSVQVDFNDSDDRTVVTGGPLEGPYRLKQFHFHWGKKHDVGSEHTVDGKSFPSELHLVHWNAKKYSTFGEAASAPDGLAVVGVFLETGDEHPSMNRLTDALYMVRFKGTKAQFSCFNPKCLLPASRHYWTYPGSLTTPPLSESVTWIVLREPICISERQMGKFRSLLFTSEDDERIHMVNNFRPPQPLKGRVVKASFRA

[7] = biological target: T3, CAIX (Homo sapiens, UniProt Q16790); test: fluorescent thermal shift assay (FTSA), CAIX; assay type: binding; conditions: for ΔGobs CAIX: pH 7
[8] = biological target: CAXIII (Homo sapiens, UniProt Q8N1Q1); test: fluorescent thermal shift assay (FTSA), CAXIII; assay type: binding; conditions: 37 °C; for ΔGobs CAXIII: converted from Kd_obs, pH 7.0, FTSA; for ΔGintr CAXIII: converted from Kd_intr, independent of pH
Sequence of CAXIII (Q8N1Q1 whole entry): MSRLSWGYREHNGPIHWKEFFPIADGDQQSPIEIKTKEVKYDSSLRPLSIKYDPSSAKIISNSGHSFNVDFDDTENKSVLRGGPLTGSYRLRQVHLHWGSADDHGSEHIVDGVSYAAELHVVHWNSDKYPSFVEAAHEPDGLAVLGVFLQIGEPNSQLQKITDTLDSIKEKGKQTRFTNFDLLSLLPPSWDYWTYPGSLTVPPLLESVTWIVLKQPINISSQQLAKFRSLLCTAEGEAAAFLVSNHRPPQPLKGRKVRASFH

[9] = biological target: CAXIV (Homo sapiens, UniProt Q9ULX7); test: fluorescent thermal shift assay (FTSA), CAXIV; assay type: binding; conditions: 37 °C; for ΔGobs CAXIV: converted from Kd_obs, pH 7.0, FTSA; for ΔGintr CAXIV: converted from Kd_intr, independent of pH
Sequence of CAXIV (Q9ULX7 16-337): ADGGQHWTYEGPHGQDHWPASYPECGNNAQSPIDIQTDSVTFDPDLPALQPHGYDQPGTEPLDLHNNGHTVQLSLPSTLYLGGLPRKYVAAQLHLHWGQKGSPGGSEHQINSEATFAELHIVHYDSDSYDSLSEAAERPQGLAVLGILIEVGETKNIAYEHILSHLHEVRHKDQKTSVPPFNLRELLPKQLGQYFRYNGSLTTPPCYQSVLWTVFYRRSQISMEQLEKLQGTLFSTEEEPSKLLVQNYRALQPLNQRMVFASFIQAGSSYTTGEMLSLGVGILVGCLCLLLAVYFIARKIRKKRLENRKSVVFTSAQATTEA

[10] = determination of pKa of the sulfonamide group by UV-VIS spectra at various pH; assay type: physicochemical; conditions: for f RSO2NH-, fraction of deprotonated sulfonamide: at pH 7.0, calculated from pKa; for pKa: calculated from spectra at various pH, 37 °C
[11] = biological target: T1, CAI
[12] = biological target: T2, CAII
[13] = biological target: T4, CAXII (Homo sapiens, UniProt O43570); conditions: for -TΔSintr CAXII / ΔHintr CAXII: intrinsic, 37 °C; for ΔHintr CAXII: independent of pH and buffer; for ΔHobs CAXII: observed, sodium phosphate buffer pH 7.0, 37 °C, ITC
T4 sequence (O43570 25-354): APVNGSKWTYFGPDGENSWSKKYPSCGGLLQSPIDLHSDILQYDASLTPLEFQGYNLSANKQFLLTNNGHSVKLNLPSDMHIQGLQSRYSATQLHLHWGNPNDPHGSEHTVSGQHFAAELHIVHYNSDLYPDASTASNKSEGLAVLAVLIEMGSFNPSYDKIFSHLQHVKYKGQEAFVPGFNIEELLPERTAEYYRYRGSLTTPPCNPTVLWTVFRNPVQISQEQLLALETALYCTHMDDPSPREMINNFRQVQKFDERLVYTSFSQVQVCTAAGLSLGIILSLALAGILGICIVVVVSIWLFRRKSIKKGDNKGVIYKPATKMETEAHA

[14] = 37 °C
[15] = biological target: CAIII (Homo sapiens, UniProt P07451); test: fluorescent thermal shift assay (FTSA), CAIII; assay type: binding; conditions: 37 °C; for ΔGintr CAIII: converted from Kd_intr, independent of pH; for ΔGobs CAIII: converted from Kd_obs, pH 7.0, FTSA
Sequence of CAIII (P07451 whole entry): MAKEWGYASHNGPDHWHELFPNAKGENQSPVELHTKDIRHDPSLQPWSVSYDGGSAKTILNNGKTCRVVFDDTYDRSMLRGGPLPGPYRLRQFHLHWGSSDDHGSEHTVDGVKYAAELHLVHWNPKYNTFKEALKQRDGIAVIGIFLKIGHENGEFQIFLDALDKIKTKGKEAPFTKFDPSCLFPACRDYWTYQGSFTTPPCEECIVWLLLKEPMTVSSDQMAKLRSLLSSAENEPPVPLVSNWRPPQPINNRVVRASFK

[16] = biological target: CAIV (Homo sapiens, UniProt P22748); test: fluorescent thermal shift assay (FTSA), CAIV; assay type: binding; conditions: 37 °C; for ΔGintr CAIV: converted from Kd_intr, independent of pH; for ΔGobs CAIV: converted from Kd_obs, pH 7.0, FTSA
Sequence of CAIV (P22748 19-312): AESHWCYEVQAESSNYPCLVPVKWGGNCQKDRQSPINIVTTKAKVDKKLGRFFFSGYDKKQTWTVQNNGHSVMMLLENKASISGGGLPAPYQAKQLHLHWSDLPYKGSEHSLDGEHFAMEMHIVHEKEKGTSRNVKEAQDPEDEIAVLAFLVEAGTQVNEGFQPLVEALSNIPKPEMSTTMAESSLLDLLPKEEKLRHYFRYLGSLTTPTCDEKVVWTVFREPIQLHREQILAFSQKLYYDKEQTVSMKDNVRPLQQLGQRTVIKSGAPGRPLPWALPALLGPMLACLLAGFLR

[17] = biological target: CAVA (Homo sapiens, UniProt P35218); test: fluorescent thermal shift assay (FTSA), CAVA; assay type: binding; conditions: 37 °C; for ΔGintr CAVA: converted from Kd_intr, independent of pH; for ΔGobs CAVA: converted from Kd_obs, pH 7.0, FTSA
Sequence of CAVA (P35218 39-305): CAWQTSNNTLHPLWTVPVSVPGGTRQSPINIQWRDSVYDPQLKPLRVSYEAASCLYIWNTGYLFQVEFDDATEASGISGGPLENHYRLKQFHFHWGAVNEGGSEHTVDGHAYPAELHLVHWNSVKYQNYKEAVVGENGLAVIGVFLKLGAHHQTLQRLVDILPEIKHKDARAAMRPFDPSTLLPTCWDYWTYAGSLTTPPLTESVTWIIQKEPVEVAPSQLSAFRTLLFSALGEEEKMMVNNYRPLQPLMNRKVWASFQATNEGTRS

[18] = biological target: T4, CAXII; test: fluorescent thermal shift assay (FTSA), CAXII; assay type: binding; conditions: 37 °C; for ΔGintr CAXII: converted from Kd_intr, independent of pH; for ΔGobs CAXII: converted from Kd_obs, pH 7.0, FTSA
[19] = solubility observed visually and in absorption spectra; assay type: physicochemical; design: key: low solubility, LS
[20] = biological target: T5, mimic-CAIX (mutant of CAII: A65S, N67Q, I91L, F130V, V134L, L203A) (Homo sapiens, UniProt P00918, A65S/F130V/I91L/L203A/N67Q/V134L); conditions: intrinsic, calculated using pKa_CAZn(II)H2O of CAII, 37 °C
[21] = biological target: T3, CAIX
[22] = biological target: T5, mimic-CAIX (mutant of CAII: A65S, N67Q, I91L, F130V, V134L, L203A)
[23] = intrinsic, 37 °C, independent of pH and buffer
[24] = observed, sodium phosphate buffer pH 7.0, 37 °C, ITC

| Compound | ΔGintr CAI [1] [kcal/mol] | ΔGobs CAI [1] [kcal/mol] | ΔGintr CAII [2] [kcal/mol] | ΔGobs CAII [2] [kcal/mol] | ΔGintr CAVB [4] [kcal/mol] | ΔGobs CAVB [4] [kcal/mol] | ΔGintr CAVI [5] [kcal/mol] | ΔGobs CAVI [5] [kcal/mol] | ΔGintr CAVII [6] [kcal/mol] | ΔGobs CAVII [6] [kcal/mol] | ΔGobs CAIX [7] [kcal/mol] | ΔGobs CAXIII [8] [kcal/mol] | ΔGobs CAXIV [9] [kcal/mol] | f RSO2NH-, fraction of deprotonated sulfonamide [10] | pKa [10] | ΔHintr CAXII [13] [kcal/mol] | ΔGintr CAVA [17] [kcal/mol] | ΔGobs CAVA [17] [kcal/mol] | ΔGintr CAIX [7] [kcal/mol] | ΔGintr CAXIV [9] [kcal/mol] | other results |
| --- | --- | --- | --- | --- | --- | --- | --- | --- | --- | --- | --- | --- | --- | --- | --- | --- | --- | --- | --- | --- | --- |
| COC(=O)c1cc(S(N)(=O)=O)c(Cl)cc1S(=O)(=O)c1ccccc1 [Compound 9a, Methyl 2-(benzenesulfonyl)-4-chloro-5-sulfamoylbenzoate] | -11.5 | -9.7 | -15.1 | -12.8 | -13.3 | -11.2 | -13.5 | -10.3 | -15.6 | -13.3 | -12 | -11.7 | -12.9 | 5.9% and 5.94% | 8.2 | -9.08 | – | – | – | – | binding to CAII stronger than to CAXII (factor) [3]: 26 fold; ΔHintr CAI [11, 23]: -9.49 kcal/mol; ΔHobs CAI [11, 24]: -4.25 kcal/mol; ΔHintr CAII [12, 23]: -5.57 kcal/mol; ΔHobs CAII [12, 24]: -2.46 kcal/mol; -TΔSintr CAXII [13]: -4.11 kcal/mol; ΔHobs CAXII [13]: -6.55 kcal/mol; Δp_RSO2NH2H, protonation enthalpy of sulfonamide group [14]: -6.91 kcal/mol |
| COC(=O)c1cc(S(N)(=O)=O)c(S(=O)(=O)Cc2ccccc2)cc1Cl [Compound 7c, Methyl 4-benzylsulfonyl-2-chloro-5-sulfamoylbenzoate] | ≥ -9.27 | ≥ -5.26 | ≥ -9.78 | ≥ -5.28 | ≥ -9.66 | ≥ -5.26 | -10.9 | -5.5 | ≥ -9.8 | ≥ -5.26 | -8.65 | -5.47 | -7.34 | 0.2% | – | – | ≥ -9.46 | ≥ -5.26 | -13.4 | -11.9 | ΔGintr CAIII [15]: ≥ -10.1 kcal/mol; ΔGobs CAIII [15]: ≥ -5.26 kcal/mol; ΔGintr CAIV [16]: -12.2 kcal/mol; ΔGobs CAIV [16]: -7.43 kcal/mol; ΔGintr CAXII [18]: -11.9 kcal/mol; ΔGobs CAXII [18]: -7.34 kcal/mol; ΔGintr CAXIII [8]: -9.51 kcal/mol; solubility [19]: LS |
| COC(=O)c1cc(S(N)(=O)=O)c(SC2CCCCC2)cc1Cl [Compound 3b, Methyl 2-chloro-4-(cyclohexylsulfanyl)-5-sulfamoylbenzoate] | -10.5 | -6.79 | -13.6 | -9.37 | -11.1 | -7.03 | -14.4 | -9.2 | – | -9.68 | -13.5 | -10.3 | -11.2 | 0.3% and 0.25% | 9.6 | -11.5 | -9.61 | -5.66 | -17.9 | -15.5 | ΔGintr CAIII [15]: -10.8 kcal/mol; ΔGobs CAIII [15]: -6.24 kcal/mol; ΔGintr CAIV [16]: -13.6 kcal/mol; ΔGobs CAIV [16]: -9.08 kcal/mol; binding affinity, times stronger to CAIX than CAXII [7]: 150 times; native CAIX bound more strongly than mimic-CAIX [7]: 10 fold; ΔGintr CAXIII [8]: -14.1 kcal/mol; ΔGintr mimic-CAIX [20]: -16.1 kcal/mol; -TΔSintr CAIX ([21]; intrinsic, 37 °C): -10.8 kcal/mol; ΔHintr CAIX [21, 23]: -7.15 kcal/mol; ΔHobs CAIX [21, 24]: -2.51 kcal/mol; ΔHintr mimic CAIX ([22]; intrinsic, 37 °C, calculated using protonation enthalpy of CAII): -7.46 kcal/mol; ΔHobs mimic CAIX [22, 24]: -2.39 kcal/mol; -TΔSintr CAXII [13]: -3.42 kcal/mol; ΔHobs CAXII [13]: -6.96 kcal/mol; Δp_RSO2NH2H, protonation enthalpy of sulfonamide group [14]: -8.53 kcal/mol |
| COC(=O)c1cc(S(N)(=O)=O)c(Br)cc1Sc1ccccc1 [Compound 6a, Methyl 4-bromo-2-(phenylsulfanyl)-5-sulfamoylbenzoate] | -11.4 | -7.96 | -14 | -10.1 | -14.5 | -10.7 | -13.9 | -9.06 | -13.5 | -9.46 | -11.4 | -11.1 | -11.2 | 0.4% | – | – | -9.44 | -5.76 | -15.5 | -15.2 | ΔGintr CAIII [15]: ≥ -9.54 kcal/mol; ΔGobs CAIII [15]: ≥ -5.26 kcal/mol; ΔGintr CAIV [16]: -14.7 kcal/mol; ΔGobs CAIV [16]: -10.5 kcal/mol; ΔGintr CAXII [18]: -14.9 kcal/mol; ΔGobs CAXII [18]: -10.9 kcal/mol; ΔGintr CAXIII [8]: -14.5 kcal/mol; solubility [19]: LS |
| COC(=O)c1cc(S(N)(=O)=O)c(Cl)cc1SC1CCCCC1 [Compound 5b, Methyl 4-chloro-2-cyclohexylsulfanyl-5-sulfamoylbenzoate] | -12.6 | -9.2 | -14.8 | -10.9 | -15.5 | -11.7 | – | -9.49 | -14.9 | -10.9 | -11.5 | -11.4 | -11.8 | 0.4% | 9.4 | -10.4 | -11.3 | -7.65 | -15.7 | -15.8 | ΔGobs CAIII [15]: ≥ -5.26 kcal/mol; ΔGintr CAIV [16]: -14.4 kcal/mol; ΔGobs CAIV [16]: -10.2 kcal/mol; ΔGintr CAXIII [8]: -14.8 kcal/mol; -TΔSintr CAXII [13]: -4.76 kcal/mol; ΔHobs CAXII [13]: -6.5 kcal/mol; N (ITC, observed fitted parameter) CAXII ([13]; single repeats, pH 7.0, 37 °C, Figure S8): 1.0 and 1.1; Δp_RSO2NH2H, protonation enthalpy of sulfonamide group [14]: -7.96 kcal/mol |
| COC(=O)c1cc(S(N)(=O)=O)c(SCCc2ccccc2)cc1Cl [Compound 3d, Methyl 2-chloro-4-[(2-phenylethyl)sulfanyl]-5-sulfamoylbenzoate] | -10.7 | -6.93 | -13.8 | -9.61 | -11.2 | -7.1 | -14 | -8.8 | -14.2 | -9.94 | -11.2 | -10.5 | -10.4 | 0.3% and 0.25% | 9.6 | -12 | -9.54 | -5.59 | -15.7 | -14.7 | ΔHobs CAXII [13]: -6.19 kcal/mol; Δp_RSO2NH2H, protonation enthalpy of sulfonamide group [14]: -9.8 kcal/mol |
